Literature values, collected in patent US11433115B2, “Glycopeptide antibiotics liquid formulations and methods and uses thereof” (SOMERSET THERAPEUTICS, LLC, priority 2020, dated 2022).
Like-named read-outs stand apart in the source and are kept apart here.

What was measured:
[1] = orally-dosed pigs, ˜382 mg/kg
rats = conditions: rat, in vivo
acylases = conditions: via the action of acylases

Compound: CSCC[C@@H](NC(C)=O)C(=O)O [NADM, N-acetyl-D-methionine]
- hydrolysis to D- and L-methionine [1]: only minimally hydrolyzed
- time to peak plasma concentration after dosing [1]: 15 min

Compound: CSCC[C@H](NC(C)=O)C(=O)O [NALM, N-acetyl-L-methionine]
- LD50 (rats; iv): 435 mg/kg
- hydrolysis to L-methionine and acetic acid (acylases): completely hydrolyzed

Compound: polyethylene glycol [PEG 400]
- embryo-fetal toxicity (in vivo): caused fetal malformations

Compound: CSCCC(NC(C)=O)C(=O)O (racemic) [N-acetyl-DL-methionine]
- LD50 (rats; ip): 6700 mg/kg

Compound: CC(=O)N[C@H](C)C(=O)O [NADA, N-acetyl D-alanine]
- embryo-fetal toxicity (animal reproduction studies): caused fetal malformations
